Assay results reported in ChEMBL document CHEMBL5291721, “A preclinical secondary pharmacology resource illuminates target-adverse drug reaction associations of marketed drugs” (Nat Commun, 2023).

Tests used:
[1] = target: T1, 5-hydroxytryptamine receptor 3A (Homo sapiens, UniProt P46098); format: functional
T1 sequence (P46098 whole entry): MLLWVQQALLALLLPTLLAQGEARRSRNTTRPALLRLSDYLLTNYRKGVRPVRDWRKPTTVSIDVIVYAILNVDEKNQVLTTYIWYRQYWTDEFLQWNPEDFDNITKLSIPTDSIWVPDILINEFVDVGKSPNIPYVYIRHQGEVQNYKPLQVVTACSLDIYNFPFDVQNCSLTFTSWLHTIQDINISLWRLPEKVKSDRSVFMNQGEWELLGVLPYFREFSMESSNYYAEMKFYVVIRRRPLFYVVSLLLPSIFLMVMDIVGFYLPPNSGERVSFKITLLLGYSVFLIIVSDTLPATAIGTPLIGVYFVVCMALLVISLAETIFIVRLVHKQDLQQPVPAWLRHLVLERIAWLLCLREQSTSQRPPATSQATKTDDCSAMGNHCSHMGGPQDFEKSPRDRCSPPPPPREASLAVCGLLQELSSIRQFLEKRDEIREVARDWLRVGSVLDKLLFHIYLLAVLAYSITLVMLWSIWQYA

[2] = target: T2, Muscarinic acetylcholine receptor M2 (Homo sapiens, UniProt P08172); format: functional, cell-based
T2 sequence (P08172 whole entry): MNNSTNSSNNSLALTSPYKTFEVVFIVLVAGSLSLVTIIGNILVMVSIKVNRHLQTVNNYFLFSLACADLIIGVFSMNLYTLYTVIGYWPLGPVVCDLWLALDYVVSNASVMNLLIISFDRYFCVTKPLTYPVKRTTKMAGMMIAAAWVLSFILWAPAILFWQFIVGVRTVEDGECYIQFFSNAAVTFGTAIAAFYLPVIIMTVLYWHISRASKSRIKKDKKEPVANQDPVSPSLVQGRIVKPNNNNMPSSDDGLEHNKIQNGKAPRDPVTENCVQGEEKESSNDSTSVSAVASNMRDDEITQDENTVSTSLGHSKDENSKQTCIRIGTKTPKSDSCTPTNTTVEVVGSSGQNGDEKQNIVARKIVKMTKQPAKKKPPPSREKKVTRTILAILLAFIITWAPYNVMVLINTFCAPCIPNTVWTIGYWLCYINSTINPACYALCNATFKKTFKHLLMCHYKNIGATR

[3] = target: T3, 5-hydroxytryptamine receptor 2C (Homo sapiens, UniProt P28335)
T3 sequence (P28335 whole entry): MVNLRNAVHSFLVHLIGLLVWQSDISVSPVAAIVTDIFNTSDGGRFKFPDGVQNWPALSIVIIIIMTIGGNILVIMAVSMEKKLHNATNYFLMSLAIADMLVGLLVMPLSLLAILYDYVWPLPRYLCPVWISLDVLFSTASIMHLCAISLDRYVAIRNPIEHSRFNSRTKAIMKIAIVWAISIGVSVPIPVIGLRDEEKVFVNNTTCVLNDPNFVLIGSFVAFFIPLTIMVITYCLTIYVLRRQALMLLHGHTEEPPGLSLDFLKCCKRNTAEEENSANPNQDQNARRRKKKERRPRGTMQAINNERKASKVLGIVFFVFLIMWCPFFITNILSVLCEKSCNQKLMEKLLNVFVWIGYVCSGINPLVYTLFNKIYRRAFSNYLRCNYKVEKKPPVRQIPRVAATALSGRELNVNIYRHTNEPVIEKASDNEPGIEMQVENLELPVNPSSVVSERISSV

[4] = target: 3',5'-cyclic-AMP phosphodiesterase 4D (Homo sapiens, UniProt Q08499); format: functional
Chain of 3',5'-cyclic-AMP phosphodiesterase 4D (Q08499 whole entry): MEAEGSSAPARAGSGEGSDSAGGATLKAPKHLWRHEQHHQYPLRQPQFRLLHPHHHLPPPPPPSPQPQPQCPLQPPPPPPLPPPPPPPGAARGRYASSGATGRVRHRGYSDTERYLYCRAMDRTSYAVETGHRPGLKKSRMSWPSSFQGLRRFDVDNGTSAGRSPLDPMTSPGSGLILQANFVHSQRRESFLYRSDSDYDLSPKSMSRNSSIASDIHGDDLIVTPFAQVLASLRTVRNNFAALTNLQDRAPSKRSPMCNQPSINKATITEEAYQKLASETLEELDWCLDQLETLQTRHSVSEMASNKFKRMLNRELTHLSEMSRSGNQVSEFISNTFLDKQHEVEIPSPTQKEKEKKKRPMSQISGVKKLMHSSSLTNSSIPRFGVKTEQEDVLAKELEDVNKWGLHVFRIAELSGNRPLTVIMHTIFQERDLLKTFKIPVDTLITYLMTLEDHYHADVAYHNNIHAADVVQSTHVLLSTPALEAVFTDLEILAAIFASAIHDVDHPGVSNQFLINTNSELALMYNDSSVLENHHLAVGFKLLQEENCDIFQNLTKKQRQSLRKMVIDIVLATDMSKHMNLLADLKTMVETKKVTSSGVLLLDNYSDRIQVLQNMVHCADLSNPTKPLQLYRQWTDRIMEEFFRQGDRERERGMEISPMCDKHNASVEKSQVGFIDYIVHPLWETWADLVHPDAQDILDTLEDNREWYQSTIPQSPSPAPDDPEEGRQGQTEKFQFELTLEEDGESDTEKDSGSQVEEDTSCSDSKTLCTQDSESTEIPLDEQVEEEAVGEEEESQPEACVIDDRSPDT

[5] = target: Histamine H2 receptor (Homo sapiens, UniProt P25021); format: functional, cell-based
Chain of Histamine H2 receptor (P25021 whole entry): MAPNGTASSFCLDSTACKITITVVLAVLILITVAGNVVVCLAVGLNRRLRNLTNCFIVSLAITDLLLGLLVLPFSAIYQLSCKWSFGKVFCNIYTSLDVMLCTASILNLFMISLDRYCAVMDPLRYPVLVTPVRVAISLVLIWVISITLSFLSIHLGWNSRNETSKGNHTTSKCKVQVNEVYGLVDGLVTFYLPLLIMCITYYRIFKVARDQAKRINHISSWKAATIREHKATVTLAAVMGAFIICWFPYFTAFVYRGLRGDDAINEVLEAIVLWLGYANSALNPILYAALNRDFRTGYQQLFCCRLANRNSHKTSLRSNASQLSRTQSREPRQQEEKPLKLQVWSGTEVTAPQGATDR

[6] = target: 5-hydroxytryptamine receptor 2B (Homo sapiens, UniProt P41595); format: functional, cell-based
Chain of 5-hydroxytryptamine receptor 2B (P41595 whole entry): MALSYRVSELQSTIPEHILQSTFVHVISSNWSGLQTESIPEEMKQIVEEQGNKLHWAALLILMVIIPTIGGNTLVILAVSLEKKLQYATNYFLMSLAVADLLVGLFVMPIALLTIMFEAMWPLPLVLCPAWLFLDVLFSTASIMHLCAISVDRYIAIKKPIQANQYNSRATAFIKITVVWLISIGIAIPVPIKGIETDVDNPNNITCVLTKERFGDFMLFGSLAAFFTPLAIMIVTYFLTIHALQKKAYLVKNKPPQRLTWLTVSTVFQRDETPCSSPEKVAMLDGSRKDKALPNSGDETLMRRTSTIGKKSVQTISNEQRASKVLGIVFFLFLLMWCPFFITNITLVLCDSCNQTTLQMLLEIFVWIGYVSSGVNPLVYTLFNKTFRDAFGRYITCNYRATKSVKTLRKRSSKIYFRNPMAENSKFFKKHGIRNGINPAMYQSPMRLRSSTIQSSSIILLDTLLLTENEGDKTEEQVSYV

[7] = target: D(3) dopamine receptor (Homo sapiens, UniProt P35462)
Chain of D(3) dopamine receptor (P35462 whole entry): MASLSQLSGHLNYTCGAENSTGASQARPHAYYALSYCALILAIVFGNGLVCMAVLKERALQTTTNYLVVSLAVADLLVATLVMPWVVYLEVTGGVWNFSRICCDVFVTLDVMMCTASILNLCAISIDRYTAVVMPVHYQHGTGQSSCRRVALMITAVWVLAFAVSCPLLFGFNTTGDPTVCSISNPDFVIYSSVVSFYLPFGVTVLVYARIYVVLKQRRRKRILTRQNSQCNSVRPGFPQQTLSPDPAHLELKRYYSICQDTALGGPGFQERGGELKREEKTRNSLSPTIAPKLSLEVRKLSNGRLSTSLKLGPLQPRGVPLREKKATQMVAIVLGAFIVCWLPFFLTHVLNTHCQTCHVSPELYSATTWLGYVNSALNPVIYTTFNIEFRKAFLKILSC

[8] = target: Cannabinoid receptor 1 (Homo sapiens, UniProt P21554); format: functional, cell-based
Chain of Cannabinoid receptor 1 (P21554 whole entry): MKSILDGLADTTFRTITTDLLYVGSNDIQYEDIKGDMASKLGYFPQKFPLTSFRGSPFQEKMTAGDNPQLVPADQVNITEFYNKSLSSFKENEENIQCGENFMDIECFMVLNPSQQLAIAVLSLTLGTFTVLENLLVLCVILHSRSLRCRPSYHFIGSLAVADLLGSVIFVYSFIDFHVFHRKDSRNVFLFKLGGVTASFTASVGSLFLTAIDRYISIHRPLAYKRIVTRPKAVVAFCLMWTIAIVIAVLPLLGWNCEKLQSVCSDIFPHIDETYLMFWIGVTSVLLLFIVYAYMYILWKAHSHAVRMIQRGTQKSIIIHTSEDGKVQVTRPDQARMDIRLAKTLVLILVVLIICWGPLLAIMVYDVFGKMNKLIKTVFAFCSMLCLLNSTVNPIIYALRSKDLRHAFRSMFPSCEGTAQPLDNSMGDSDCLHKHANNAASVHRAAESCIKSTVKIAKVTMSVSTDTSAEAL

[9] = target: T4, Type-1 angiotensin II receptor (Homo sapiens, UniProt P30556)
T4 sequence (P30556 whole entry): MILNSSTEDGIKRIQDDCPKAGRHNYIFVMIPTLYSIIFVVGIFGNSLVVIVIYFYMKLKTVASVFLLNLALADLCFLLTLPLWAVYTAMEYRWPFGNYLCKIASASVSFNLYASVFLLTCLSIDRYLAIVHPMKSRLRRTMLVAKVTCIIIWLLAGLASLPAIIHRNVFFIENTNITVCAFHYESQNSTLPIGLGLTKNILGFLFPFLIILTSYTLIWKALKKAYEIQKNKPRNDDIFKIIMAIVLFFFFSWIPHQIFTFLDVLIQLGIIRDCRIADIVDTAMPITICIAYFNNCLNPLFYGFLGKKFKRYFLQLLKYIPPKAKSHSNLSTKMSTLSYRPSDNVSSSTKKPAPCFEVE

[10] = target: T5, Glucocorticoid receptor (Homo sapiens, UniProt P04150)
T5 sequence (P04150 whole entry): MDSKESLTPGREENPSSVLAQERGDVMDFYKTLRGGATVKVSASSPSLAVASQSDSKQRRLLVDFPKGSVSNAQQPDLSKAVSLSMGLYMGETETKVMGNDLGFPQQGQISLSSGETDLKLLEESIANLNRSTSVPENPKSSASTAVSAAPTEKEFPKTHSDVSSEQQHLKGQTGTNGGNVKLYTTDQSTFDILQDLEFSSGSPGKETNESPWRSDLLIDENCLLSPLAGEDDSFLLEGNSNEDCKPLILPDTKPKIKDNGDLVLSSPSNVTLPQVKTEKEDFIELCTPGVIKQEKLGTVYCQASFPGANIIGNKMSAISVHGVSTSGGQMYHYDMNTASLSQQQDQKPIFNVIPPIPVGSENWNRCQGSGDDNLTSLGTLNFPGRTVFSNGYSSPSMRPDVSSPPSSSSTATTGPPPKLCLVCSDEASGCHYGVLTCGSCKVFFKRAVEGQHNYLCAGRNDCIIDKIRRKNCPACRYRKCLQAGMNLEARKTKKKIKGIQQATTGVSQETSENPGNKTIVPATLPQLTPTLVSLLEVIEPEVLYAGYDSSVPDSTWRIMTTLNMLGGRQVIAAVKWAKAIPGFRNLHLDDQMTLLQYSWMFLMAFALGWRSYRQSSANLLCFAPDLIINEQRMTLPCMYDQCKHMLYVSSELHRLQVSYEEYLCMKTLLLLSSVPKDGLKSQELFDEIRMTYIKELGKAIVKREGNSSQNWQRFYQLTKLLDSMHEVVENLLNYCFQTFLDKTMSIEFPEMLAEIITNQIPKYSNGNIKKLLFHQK
Also: assay procedure not described here.

Cc1nnc2n1-c1ccc(Cl)cc1C(c1ccccc1Cl)=NC2 [TRIAZOLAM]
AC50 [1]: > 30 µM
AC50 [2]: > 10 µM
AC50 [3]: > 30 µM
AC50 [4]: 33 µM
AC50 [5]: > 10 µM
AC50 [6]: > 10 µM
AC50 [7]: > 30 µM
AC50 [8]: > 30 µM
AC50 [9]: > 30 µM
AC50 [10]: > 30 µM
